Measured values published in US8450280B2, “Activation of peptide prodrugs by hK2” (GenbSpera, Inc., priority 1999, dated 2013).
Where two headings read alike, the source gives them in different places. Starred links: 1 amine or outer side, 2 acyl side, 3 side chain; linkers in the order of their positions; H or OH if unused. Non-standard residues stand in square brackets, D forms with d. Residues, ends and D or L forms follow the SMILES beside them. *: point of attachment. AMC = Cc1cc(=O)oc2cc(N*)ccc12; Tos = Cc1ccc(S(=O)(=O)*)cc1; Cbz = O=C(OCc1ccccc1)*; Boc = CC(C)(C)OC(=O)*; CO = O=C([*:1])[*:2]

Columns and labels:
Assay type in all cases: biochemical
hK2 [1] = molecular target: T1, hK2 (Homo sapiens, UniProt P20151); assay: Kinetic constants of AMC substrate hydrolysis by hK2; set-up: key to Kcat: The entry “NR” means that no reaction was detected; details: for Activity (%): hydrolytic activity of hK2 in relation to H-Pro-Phe-Arg-AMC: 100 μM substrate; for Kcat: 50 mM Tris pH 7.5, 0.1 M NaCl, 0.2% BSA, 37° C., Lineweaver-Burk, NR = no reaction detected
T1 construct: made in house
T1 sequence (P20151 25-261): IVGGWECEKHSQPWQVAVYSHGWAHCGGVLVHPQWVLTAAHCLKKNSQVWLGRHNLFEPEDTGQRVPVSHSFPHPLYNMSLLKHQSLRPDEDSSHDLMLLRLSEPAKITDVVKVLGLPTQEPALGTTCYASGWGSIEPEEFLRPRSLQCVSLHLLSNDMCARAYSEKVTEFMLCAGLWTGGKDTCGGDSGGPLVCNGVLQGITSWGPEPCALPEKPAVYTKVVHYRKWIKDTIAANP
Description: The measurements were done with Fluoroscan II (Labsystems, Helsinki, Finland) using a 355 nm excitation filter and a 460 nm emission filter. The fluorescence of 7-amino-4-methylcoumarin (AMC) (Sigma, St. Louis, Mo., USA) was determined to be 700 FIU/nmol and this value was used in the calculations of the rate of product formation. Unless otherwise indicated all final analyses were performed in 200 μl of the buffer 50 mM Tris pH 7.5, 0.1 M NaCl, and 0.2% BSA at 37° C. using 1.6 pmol hK2. BSA was added to the reaction mixture in order to minimize adsorption of the enzyme to the walls of the microtiter wells. The amount of hK2 was quantified by a commercial PSA immunoassay (Prostatus, Wallac, Turku, Finland) with the Mabs H1 17 and H50 which recognize PSA and hK2 equally well (Lovgren et al., Biochem. Biophys. Res. Co., 213, 888-895 (1995)). Under the conditions described, 1.6 pmol of the hK2 preparation cleaved 50 pmol/min of the 100 μM substrate Pro-Phe-Arg-AMC (SEQ ID NO: 55). During the 20 minute measurement time the consumption of the substrates is <7% of their total amount and was not considered to affect the reaction rate. Initial analysis of the substrates were performed with 3.2 pmol hK2 at a substrate concentration of 250 μM. Km value for the substrates cleaved by hK2 at these conditions were determined using at least four substrate concentrations ranging from 0.2×Km to 5×Km. The Km and kcat values were calculated from Lineweaver-Burk plots.
Substrates ending in either arginine or lysine were tested. […] However, no hydrolysis of Arg-Gln-Arg-Arg-AMC (SEQ ID NO: 63) was detected. […] As with the semenogelins, hK2 also here cleaves substrates with Arg at position P1 and preferentially a large residue or another Arg at position P2. None of the substrates with lysine in the C-terminal position were cleaved.
The activity listed in Table 1 is hydrolytic activity of hK2 with 100 μM substrate in relation to the hydrolytic activity of hK2 with 100 μM of the tissue kallikrein substrate H-Pro-Phe-Arg-AMC (SEQ ID NO: 55). The entry “NR” means that no reaction was detected.

hK2 [2] = molecular target: T1, hK2; assay: Inhibition of hK2 by protease inhibitors (substrate H-Pro-Phe-Arg-AMC); details: for inhibition at 100 µM: inhibitor 100 μM (highest recommended working concentration), 90 μM peptide substrate
Description: Activity of hK2 (1.6 pmol) was monitored using the substrate H-Pro-Phe-Arg-AMC (SEQ ID NO: 55) (90 μM). Inhibitors, at commonly used concentrations, and hK2 (8.3 nM) were mixed and proteolysis of 90 μM H-Pro-Phe-Arg-AMC (SEQ ID NO: 55) was followed up to 20 minutes, starting directly or 10 minutes after mixing the enzyme with various inhibitors. Inhibition was evaluated by comparison with […] controls.
The proteolytic activity is expressed in percentage of inhibitor-free control after 10 minutes of incubation.
Therefore, PPACK can be used to obtain fast irreversible inhibition of hK2.

hK2 [3] = molecular target: T1, hK2; assay: Kinetic analysis of hK2 inhibition by zinc; details: for Ki: two bound zinc ions model, best fit, substrates Pro-Phe-Arg-AMC and Ala-Arg-Arg-AMC, no BSA
Description: Since BSA contains several binding sites for Zn^2+, it could not be used in the kinetics buffer during zinc inhibition experiments. The binding of hK2 to the microtiter well walls caused a constant decrease in the reaction rate, which was however similar to all zinc concentrations. The velocities were calculated from a five-minute measurement time after mixing of the enzymes with the buffer containing substrate and zinc.
The inhibition of hK2 by zinc was first tested against competitive, uncompetitive, mixed, non-competitive, and partial non-competitive inhibitor models using commonly used formulas described for the respective inhibition models. […] The Dixon plots ([Zn^2+]/v) for the inhibition were not linear. However, at low zinc ion concentrations the inhibition pattern looked competitive. The inhibition mechanism is clearly more complex than the ones described by the formulas used. Further analysis of the inhibition mechanism was done by deriving the rate equations for various more complex mechanisms and analyzing the data by least-squares best-fit systems. The possible mechanism required two bound zinc ions, and is presented by Scheme 1.
[formula] where the concentration of free enzyme e is the total enzyme concentration divided by the sum of a) {(the zinc concentration divided by Ki1) times (the zinc concentration divided by Ki2)} and b) {(the zinc concentration divided by Ki1) plus 1} times {(the substrate concentration divided by Ks) plus 1}.
The equation fitted the experimental data quite satisfactorily. The constant values were Ki1=4.6+/−3.9 μM, Ki2=3.2+/−0.7 μM, and k=k′.

hK2 [4] = molecular target: T1, hK2; assay: Effect of heparin on hK2 activity (Km and kcat of substrate); details: heparin 10^−4 to 10^−7 M; data not shown
Source text: The increase had no significant effect on the calculation of the constants.

[5] = inhibitor 100 μM, 10 minutes of incubation, 8.3 nM hK2, 90 μM substrate, read-out: Activity (%) of hK2, percentage of inhibitor-free control
[6] = inhibitor 5 μM, 10 minutes of incubation, 8.3 nM hK2, 90 μM substrate

## Cc1cc(=O)oc2cc(NC(=O)[C@H](CCCNC(=N)N)NC(=O)[C@H](CCCNC(=N)N)NC(=O)[C@H](C)NC(=O)OCc3ccccc3)ccc12 [Ala Arg Arg-AMC, Z-Ala-Arg-Arg-AMC] (Cbz-Ala-Arg-Arg-{AMC})
hK2 [1]
  hydrolysis by hK2 (in words): cleaved quite effectively
  Activity (%): hydrolytic activity of hK2 in relation to H-Pro-Phe-Arg-AMC: 33%

## CC(C)[C@H](NC(=O)[C@H](CCCNC(=N)N)NC(=O)N[C@@H](Cc1ccccc1)C(=O)O)C(=O)N[C@H](C=O)CCCNC(=N)N [Antipain, antipain] ({Phe-CO}-Arg-Val-Arg-aldehyde)
hK2 [2]
  inhibition at 100 µM: ~90%
hK2 [2]; [5]
  remaining activity at 100 µM: 33%
hK2 [2]; inhibitor 500 μM, 10 minutes of incubation, 8.3 nM hK2, 90 μM substrate, read-out: Activity (%) of hK2, percentage of inhibitor-free control
  remaining activity at 500 µM: 10%

## Cc1cc(=O)oc2cc(NC(=O)[C@H](CCCNC(=N)N)NC(=O)[C@H](CCCNC(=N)N)NC(=O)[C@H](CCC(N)=O)NC(=O)[C@@H](N)CCCNC(=N)N)ccc12 [Arg Gln Arg Arg-AMC, H-Arg-Gln-Arg-Arg-AMC] (H-RQRR-{AMC})
hK2 [1]
  hydrolysis by hK2 (in words): no hydrolysis
  Kcat: NR

## Cl.N=C(N)c1ccccc1 [Benzamidine, Benzamidine hydrochloride]
hK2 [2]
  concentration required for efficient inhibition of hK2: above 20 mM
hK2 [2]; inhibitor 5000 μM, 10 minutes of incubation, 8.3 nM hK2, 90 μM substrate, read-out: Activity (%) of hK2, percentage of inhibitor-free control
  remaining activity at 5000 µM: 27%
hK2 [2]; inhibitor 20,000 μM, 10 minutes of incubation, 8.3 nM hK2, 90 μM substrate, read-out: Activity (%) of hK2, percentage of inhibitor-free control
  remaining activity at 20000 µM: 8%

## Cc1cc(=O)oc2cc(NC(=O)[C@H](CCCNC(=N)N)NC(=O)CNC(=O)[C@H](CCC(N)=O)NC(=O)OC(C)(C)C)ccc12 [Gln Gly Arg-AMC, Boc-Gln-Gly-Arg-AMC] (Boc-Gln-Gly-Arg-{AMC})
hK2 [1]
  Kcat: NR

## Cc1ccc(S(=O)(=O)NCC(=O)N2CCC[C@H]2C(=O)N[C@@H](CCCNC(=N)N)C(=O)Nc2ccc3c(C)cc(=O)oc3c2)cc1 [Gly Pro Arg-AMC, Tos-Gly-Pro-Arg-AMC] (Tos-Gly-Pro-Arg-{AMC})
hK2 [1]
  Kcat: NR

## Cc1ccc(S(=O)(=O)NCC(=O)N2CCC[C@H]2C(=O)N[C@@H](CCCCN)C(=O)Nc2ccc3c(C)cc(=O)oc3c2)cc1 [Gly Pro Lys-AMC, Tos-Gly-Pro-Lys-AMC] (Tos-Gly-Pro-Lys-{AMC})
hK2 [1]
  Kcat: NR

## Cc1cc(=O)oc2cc(NC(=O)[C@H](CCCNC(=N)N)NC(=O)[C@H](CC(C)C)NC(=O)[C@H](CC(C)C)NC(=O)OCc3ccccc3)ccc12 [Leu Leu Arg-AMC, Z-Leu-Leu-Arg-AMC]
hK2 [1]
  hydrolysis by hK2 (in words): with lower efficiency
  Activity (%): hydrolytic activity of hK2 in relation to H-Pro-Phe-Arg-AMC: 7%

## CC(=O)N[C@@H](CC(C)C)C(=O)N[C@@H](CC(C)C)C(=O)N[C@H](C=O)CCCNC(=N)N [Leupeptin, leupeptin]
hK2 [2]; 8 nM hK2, 90 μM substrate
  inhibition of hK2 (in words): only weakly inhibited
hK2 [2]
  inhibition at 100 µM: ~60%
hK2 [2]; [5]
  remaining activity at 100 µM: 12%

## NC(N)=NCCC[C@H](NC(=O)[C@@H]1CCCN1C(=O)[C@H](N)Cc1ccccc1)C(=O)CCl [PPACK]
hK2 [2]; 5 μM concentration, irreversible
  inhibition of hK2 (in words): inhibited hK2 rapidly
hK2 [2]; [6]
  Activity (%) of hK2, percentage of inhibitor-free control: 0%

## Cc1cc(=O)oc2cc(NC(=O)[C@H](CCCNC(=N)N)NC(=O)[C@H](CO)NC(=O)[C@H](Cc3ccccc3)NC(=O)OC(C)(C)C)ccc12 [Phe Ser Arg-AMC, Boc-Phe-Ser-Arg-AMC] (Boc-Phe-Ser-Arg-{AMC})
hK2 [1]
  Kcat: NR

## Cc1cc(=O)oc2cc(NC(=O)[C@H](CCCNC(=N)N)NC(=O)[C@H](Cc3ccccc3)NC(=O)[C@@H]3CCCN3)ccc12 [Pro Phe Arg-AMC, H-Pro-Phe-Arg-AMC] (H-Pro-Phe-Arg-{AMC})
hK2 [1]
  hydrolysis by hK2 (in words): best substrate
  Activity (%): hydrolytic activity of hK2 in relation to H-Pro-Phe-Arg-AMC: 100%
hK2 [1]; 1.6 pmol hK2, 100 μM substrate, pH 7.5, 37° C.
  rate of substrate cleavage by hK2 preparation: 50 pmol/min

## Cc1cc(=O)oc2cc(NC(=O)[C@H](CCCCN)NC(=O)[C@H](CC(C)C)NC(=O)[C@H](N)C(C)C)ccc12 [Val Leu Lys-AMC, H-D-Val-Leu-Lys-AMC] (H-[dV]-Leu-Lys-{AMC})
hK2 [1]
  Kcat: NR

## Cc1cc(=O)oc2cc(NC(=O)[C@H](CCCNC(=N)N)NC(=O)[C@@H]3CCCN3C(=O)[C@@H](NC(=O)OC(C)(C)C)C(C)C)ccc12 [Val Pro Arg-AMC, boc-Val-Pro-Arg-AMC] (Boc-Val-Pro-Arg-{AMC})
hK2 [1]
  hydrolysis by hK2 (in words): with lower efficiency
  Activity (%): hydrolytic activity of hK2 in relation to H-Pro-Phe-Arg-AMC: 6%

## Cc1cc(=O)oc2cc(NC(=O)[C@H](CCCNC(=N)N)NC(=O)[C@@H](NC(=O)[C@@H](NC(=O)OCc3ccccc3)C(C)C)C(C)C)ccc12 [Val Val Arg-AMC, Z-Val-Val-Arg-AMC] (Cbz-Val-Val-Arg-{AMC})
hK2 [1]
  Kcat: NR

## [Cl-].[Cl-].[Zn+2] [ZnCl2]
hK2 [3]
  effect on Km and Vmax of hK2: increased the Km and decreased the Vmax
  reversal of hK2 inhibition by addition of EDTA: totally reversed
hK2 [3]; read-out: Ki1
  Ki: 4.6 µM
hK2 [3]; read-out: Ki2
  Ki: 3.2 µM
hK2 [2]; 8 nM hK2, 90 μM substrate
  inhibition of hK2 (in words): effectively inhibits hK2
hK2 [2]; inhibitor 100 μM, 10 minutes of incubation, 8.3 nM hK2, 90 μM substrate
  Activity (%) of hK2, percentage of inhibitor-free control: 10%
hK2 [2]; inhibitor 200 μM, 10 minutes of incubation, 8.3 nM hK2, 90 μM substrate
  Activity (%) of hK2, percentage of inhibitor-free control: 1.2%

## Aprotinin
hK2 [2]; 8 nM hK2, 90 μM substrate
  inhibition of hK2 (in words): not to be good hK2 inhibitor
hK2 [2]; [6]
  Activity (%) of hK2, percentage of inhibitor-free control: 10%
hK2 [2]; inhibitor 30 μM, 10 minutes of incubation, 8.3 nM hK2, 90 μM substrate
  Activity (%) of hK2, percentage of inhibitor-free control: 33%

## PSTI: protease inhibitor present in the prostate (DSLGREAKCYNELNGCTKIYDPVCGTDGNTYPNECVLCFENRKRQTSILIQKSGPC)
hK2 [2]; 8 nM hK2, 90 μM substrate
  inhibition of hK2 (in words): inhibited hK2 weakly
hK2 [2]; inhibitor 0.08 μM, 10 minutes of incubation, 8.3 nM hK2, 90 μM substrate
  Activity (%) of hK2, percentage of inhibitor-free control: 100%
hK2 [2]; inhibitor 4 μM, 10 minutes of incubation, 8.3 nM hK2, 90 μM substrate
  Activity (%) of hK2, percentage of inhibitor-free control: 89%

## heparin
hK2 [4]
  effect on Km of the substrate: slightly increased
